The values that follow come from patent EP3033433B1, “DETECTION OF ORGANOPHOSPHATE RESISTANCE IN CRUSTACEANS” (priority 2013, dated 2015).

For test [1], the system named is acetyl cholin esterase from sea lice (L. salmonis). The following applies: within 2 minutes, 0.01 µM azamethiphos, samples collected 2000 - 2002, cited from earlier work.
Test [2] concerns sea lice (L. salmonis). Description: Bioassay of sea lice strains' sensitivity to azamethiphos (exposure to increasing concentrations). It counts as in vivo. As to conditions: Lepeophtheirus salmonis. An excerpt: (§1) The parasites had to be tested by a bioassay method, i.e. exposure to increasing concentrations of the agent to see how much they tolerated. As no bioassay method for salmon lice sensitivity towards azamethiphos was published, an unpublished protocol had to be used, with necessary adaptations. To be on the safe side, small scale laboratory treatments with fish infected with parasites containing only the wild-type enzyme versus fish infected with parasites containing the mutation were also successfully performed and confirmed the bioassay results.
The sensitivity of the strains analyzed was tested by traditional bioassays and small scale treatments (Helgesen et al., 2013). The history of the strains were LSAlta: Sampled 2010, inbred for approx. 10 generations. Fully sensitive to all agents LSBjugn: Sampled 2008, inbred for approx. 15 generations. Moderately resistant to azamethiphos, pyrethroids and emamectin benzoate. LSGulen: Sampled in 2004, inbred for approx. 25 generations. Fully sensitive to all agents LSHitra: Sampled in 2011. Resistant towards azamethiphos (not tested for other agents). Inbred for approx. 7 generations. LSHitra-s: Subset of LSHitra where fish with parasites were treated with 100 ppb azamethiphos (Salmosan™) for 30 minutes in a 200 liter fibre-glass tank. The subset is the surviving parasites after treatment. LSVeso: Sampled in 2012 in the field (Otterøya) shortly after a full-scale treatment with azamethiphos in the farm. Only surviving parasites were sampled.

In test [3] the test system is sea lice (L. salmonis). Description: Small scale laboratory treatment of fish infected with salmon lice. It counts as in vivo, Lepeophtheirus salmonis. As to conditions: 100 ppb azamethiphos.
Source text: as §1
The strains were: LSAlta: Sampled 2010, inbred for approx. 10 generations. No history of insensivity towards azamethiphos. LSBjugn: Sampled 2008, inbred for approx. 15 generations. History of insensitivity towards azamethiphos. LSGulen: Sampled in 2004, inbred for approx. 25 generations. No history of insensivity towards azamethiphos. LSHitra: Sampled in 2011, inbred for approx. 7 generations. History of insensitivity towards azamethiphos. LSHitra-s: Subset of LSHitra where fish with parasites were treated with 100 ppb azamethiphos (Salmosan™) for 30 minutes in a 200 liter fibre-glass tank. The subset is the surviving parasites after treatment. […]
The sensitivity of the strains analyzed was tested by traditional bioassays and small scale treatments (Helgesen et al., 2013). […]

For test [4], the target named is Phe371Tyr, Drosophila amino acid sequence (Drosophila melanogaster, UniProt P07140, F409Y). As to conditions: Phe371Tyr mutant versus wild type enzyme; cited from earlier work.

One may read the EC50 as the concentration at which the effect is half-maximal.

In brackets after ≈: the same amount, converted by molar mass. Where two headings read alike, the source gives them in different places.

`COP(=O)(OC)SCn1c(=O)oc2cc(Cl)cnc21` [azamethiphos, S-[(6-Chloro-2-oxo[1,3]oxazolo[4,5-b]pyridin-3(2H)-yl)methyl]O,O-dimethyl phosphorothioate]: the “acetyl cholin esterase inhibited” value in test [1] (samples with bi-exponential decline rate (most likely heterozygot resistant), activity remained at this level) is “approx. 80%”. The enzyme activity inhibited result in test [1] (samples with mono-exponential decline rate (most likely wild type)) is given as “inhibited completely”. Moreover, the 50% effective concentration (EC50) in the test with sea lice (L. salmonis) [2] (strain LSAlta) was 2.1 ng/mL; in the test on sea lice (L. salmonis) [2] (strain LSBjugn, read-out: EC50), 4.5 ng/mL (≈ 0.0139 µM); with sea lice (L. salmonis) [2] (strain LSGulen, read-out: EC50) it was 1.8 ng/mL (≈ 0.00554 µM); with sea lice (L. salmonis) [2] (strain LSHitra, read-out: EC50) it was 60 ng/mL (≈ 0.185 µM); in the test on sea lice (L. salmonis) [2] (strain LSVeso, tested at only one concentration, read-out: EC50) it was more than 100 ng/mL. Besides, the “Treatment efficacy (%) mean” value is 100% in the test on sea lice (L. salmonis) [3] (strain LSAlta (fully sensitive)) and 50% in the test on sea lice (L. salmonis) [3] (strain LSHitra (resistant)).

For `CCOP(=O)(OCC)Oc1ccc([N+](=O)[O-])cc1` [paraoxon], in test [4], the “decrease the sensitivity of the enzyme” value is 200 fold.
